From the NIST ThermoML archive (doi:10.1021/je050416y)

How the values were obtained:
[1] = xn = mol fraction of the nth substance listed; details: 101 kPa, Liquid, x2 = 0; for mass density: Vibrating tube method
[2] = 101 kPa, Liquid; for mass density: Vibrating tube method

CCO [ethanol] + CCC(C)CO
[1]
Details | kinematic viscosity [m2/s] | mass density [kg/m3]
293.15 K | 1.52e-06 | 789.7
298.15 K | 1.39e-06 | 785.3
303.15 K | 1.23e-06 | 780.9
308.15 K | 1.13e-06 | 776.5
313.15 K | 1.02e-06 | 772.2
318.15 K | 9.4e-07 | 767.9
323.15 K | 8.28e-07 | 763.5

CCO [ethanol]
[2]
Details | kinematic viscosity [m2/s] | mass density [kg/m3]
293.15 K | 1.52e-06 | 789.7
298.15 K | 1.39e-06 | 785.3
303.15 K | 1.23e-06 | 780.9
308.15 K | 1.13e-06 | 776.5
313.15 K | 1.02e-06 | 772.2
318.15 K | 9.4e-07 | 767.9
323.15 K | 8.28e-07 | 763.5

CC(C)CCO [3-methylbutan-1-ol]
[2]
Details | kinematic viscosity [m2/s] | mass density [kg/m3]
293.15 K | 5e-06 | 808.3
298.15 K | 4.35e-06 | 804.6
303.15 K | 3.81e-06 | 800.8
308.15 K | 3.33e-06 | 797.1
313.15 K | 2.94e-06 | 793.2
318.15 K | 2.59e-06 | 789.5
323.15 K | 2.29e-06 | 785.7

CCO [ethanol] + CC(C)CCO
[1]
Details | kinematic viscosity [m2/s] | mass density [kg/m3]
293.15 K | 1.52e-06 | 789.7
298.15 K | 1.39e-06 | 785.3
303.15 K | 1.23e-06 | 780.9
308.15 K | 1.13e-06 | 776.5
313.15 K | 1.02e-06 | 772.2
318.15 K | 9.4e-07 | 767.9
323.15 K | 8.28e-07 | 763.5

CCO [ethanol] + CCC(C)(C)O
[1]
Details | kinematic viscosity [m2/s] | mass density [kg/m3]
293.15 K | 1.52e-06 | 789.7
298.15 K | 1.39e-06 | 785.3
303.15 K | 1.23e-06 | 780.9
308.15 K | 1.13e-06 | 776.5
313.15 K | 1.02e-06 | 772.2
318.15 K | 9.4e-07 | 767.9
323.15 K | 8.28e-07 | 763.5

CCC(C)CO (stereo not drawn) [2-methyl-1-butanol]
[2]
Details | kinematic viscosity [m2/s] | mass density [kg/m3]
293.15 K | 6.11e-06 | 817.6
298.15 K | 5.34e-06 | 814.1
303.15 K | 4.69e-06 | 810.5
308.15 K | 4.08e-06 | 807.1
313.15 K | 3.54e-06 | 803.6
318.15 K | 3.09e-06 | 800.1
323.15 K | 2.72e-06 | 796.6

CCC(C)(C)O [2-methylbutan-2-ol]
[2]
Details | kinematic viscosity [m2/s] | mass density [kg/m3]
293.15 K | 5.11e-06 | 813.9
298.15 K | 4.47e-06 | 810.5
303.15 K | 3.91e-06 | 807
308.15 K | 3.39e-06 | 803.5
313.15 K | 2.91e-06 | 800
318.15 K | 2.52e-06 | 796.6
323.15 K | 2.09e-06 | 793.3
